Source: PubChem BioAssay AID1963422 (Molecular Pharmacology Branch, DTP, NCI, 2024)

Tested on: 463943-066-T-J2-PDC complex spheroid growth
Experiment: Anticancer human tumor 463943-066-T-J2-PDC patient-derived colon adenocarcinoma cell line growth inhibition [Asc]
Details: for IC50: curve of first compound; for viability, T/C: stronger effect = lower value
Method in brief: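 Spheroid model: tumor line + HUVEC + hMSC. Single agents and combinations; top conc. at/near clinical Cmax (10 microM if undetermined), half-log dilutions. DMSO stocks at 800-fold test concentration.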

[1] = second compound 0.00316 µM, first compound 0.00316 µM
[2] = second compound 0.00316 µM, first compound 0.01 µM
[3] = second compound 0.00316 µM, first compound 0.0316 µM
[4] = second compound 0.00316 µM, first compound 0.1 µM
[5] = second compound 0.00316 µM, first compound 0.316 µM
[6] = second compound 0.00316 µM, first compound 1 µM
[7] = second compound 0.01 µM, first compound 0.00316 µM
[8] = second compound 0.01 µM, first compound 0.01 µM
[9] = second compound 0.01 µM, first compound 0.0316 µM
[10] = second compound 0.01 µM, first compound 0.1 µM
[11] = second compound 0.01 µM, first compound 0.316 µM
[12] = second compound 0.01 µM, first compound 1 µM
[13] = second compound 0.0316 µM, first compound 0.00316 µM
[14] = second compound 0.0316 µM, first compound 0.01 µM
[15] = second compound 0.0316 µM, first compound 0.0316 µM
[16] = second compound 0.0316 µM, first compound 0.1 µM
[17] = second compound 0.0316 µM, first compound 0.316 µM
[18] = second compound 0.0316 µM, first compound 1 µM
[19] = second compound 0.1 µM, first compound 0.00316 µM
[20] = second compound 0.1 µM, first compound 0.01 µM
[21] = second compound 0.1 µM, first compound 0.0316 µM
[22] = second compound 0.1 µM, first compound 0.1 µM
[23] = second compound 0.1 µM, first compound 0.316 µM
[24] = second compound 0.1 µM, first compound 1 µM
[25] = second compound 0.316 µM, first compound 0.00316 µM
[26] = second compound 0.316 µM, first compound 0.01 µM
[27] = second compound 0.316 µM, first compound 0.0316 µM
[28] = second compound 0.316 µM, first compound 0.1 µM
[29] = second compound 0.316 µM, first compound 0.316 µM
[30] = second compound 0.316 µM, first compound 1 µM
[31] = second compound 1 µM, first compound 0.00316 µM
[32] = second compound 1 µM, first compound 0.01 µM
[33] = second compound 1 µM, first compound 0.0316 µM
[34] = second compound 1 µM, first compound 0.1 µM
[35] = second compound 1 µM, first compound 0.316 µM
[36] = second compound 1 µM, first compound 1 µM
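Further: compound exposure lasted 7 days.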
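Wherever viability, T/C is given: 100% = DMSO vehicle control wells.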

CCN1CCN(Cc2ccc(Nc3ncc(F)c(-c4cc(F)c5nc(C)n(C(C)C)c5c4)n3)nc2)CC1 + CNC(C)C(=O)NC1CN(S(=O)(=O)c2cccc(S(=O)(=O)N3CCC4CCC(C(=O)NC(c5ccccc5)c5ccccc5)N4C(=O)C(NC(=O)C(C)NC)C3)c2)CCC2CCC(C(=O)NC(c3ccccc3)c3ccccc3)N2C1=O
IC50 (second compound 0.00316 µM): > 1000 nM
IC50 (second compound 0.01 µM): > 1000 nM
IC50 (second compound 0.0316 µM): > 1000 nM
IC50 (second compound 0.1 µM): > 1000 nM
IC50 (second compound 0.316 µM): > 1000 nM
IC50 (second compound 1 µM): > 1000 nM
viability, T/C [1]: 87.7%
viability, T/C [2]: 92.7%
viability, T/C [3]: 88%
viability, T/C [4]: 93.6%
viability, T/C [5]: 109%
viability, T/C [6]: 120%
viability, T/C [7]: 99.2%
viability, T/C [8]: 102%
viability, T/C [9]: 99.8%
viability, T/C [10]: 92.2%
viability, T/C [11]: 123%
viability, T/C [12]: 121%
viability, T/C [13]: 103%
viability, T/C [14]: 108%
viability, T/C [15]: 94.9%
viability, T/C [16]: 101%
viability, T/C [17]: 116%
viability, T/C [18]: 128%
viability, T/C [19]: 89%
viability, T/C [20]: 92.3%
viability, T/C [21]: 89.6%
viability, T/C [22]: 95.5%
viability, T/C [23]: 113%
viability, T/C [24]: 110%
viability, T/C [25]: 92.3%
viability, T/C [26]: 103%
viability, T/C [27]: 99.7%
viability, T/C [28]: 89.6%
viability, T/C [29]: 109%
viability, T/C [30]: 118%
viability, T/C [31]: 88.8%
viability, T/C [32]: 92.5%
viability, T/C [33]: 84%
viability, T/C [34]: 94%
viability, T/C [35]: 120%
viability, T/C [36]: 117%

Cn1ncnc1[C@H]1c2n[nH]c(=O)c3cc(F)cc(c23)N[C@@H]1c1ccc(F)cc1 + CNC(C)C(=O)NC1CN(S(=O)(=O)c2cccc(S(=O)(=O)N3CCC4CCC(C(=O)NC(c5ccccc5)c5ccccc5)N4C(=O)C(NC(=O)C(C)NC)C3)c2)CCC2CCC(C(=O)NC(c3ccccc3)c3ccccc3)N2C1=O
IC50 (second compound 0.00316 µM): > 100 nM
IC50 (second compound 0.01 µM): > 100 nM
IC50 (second compound 0.0316 µM): > 100 nM
IC50 (second compound 0.1 µM): > 100 nM
IC50 (second compound 0.316 µM): > 100 nM
IC50 (second compound 1 µM): > 100 nM
viability, T/C (second compound 0.00316 µM, first compound 0.000316 µM): 92.7%
viability, T/C (second compound 0.00316 µM, first compound 0.001 µM): 91.4%
viability, T/C [1]: 94.3%
viability, T/C [2]: 94%
viability, T/C [3]: 101%
viability, T/C [4]: 92.4%
viability, T/C (second compound 0.01 µM, first compound 0.000316 µM): 92.4%
viability, T/C (second compound 0.01 µM, first compound 0.001 µM): 89.9%
viability, T/C [7]: 94.3%
viability, T/C [8]: 94.8%
viability, T/C [9]: 97.3%
viability, T/C [10]: 87.2%
viability, T/C (second compound 0.0316 µM, first compound 0.000316 µM): 91.6%
viability, T/C (second compound 0.0316 µM, first compound 0.001 µM): 97.8%
viability, T/C [13]: 99.2%
viability, T/C [14]: 94%
viability, T/C [15]: 103%
viability, T/C [16]: 85.6%
viability, T/C (second compound 0.1 µM, first compound 0.000316 µM): 104%
viability, T/C (second compound 0.1 µM, first compound 0.001 µM): 93.9%
viability, T/C [19]: 100%
viability, T/C [20]: 91.9%
viability, T/C [21]: 105%
viability, T/C [22]: 93.9%
viability, T/C (second compound 0.316 µM, first compound 0.000316 µM): 98.3%
viability, T/C (second compound 0.316 µM, first compound 0.001 µM): 93%
viability, T/C [25]: 89.4%
viability, T/C [26]: 93%
viability, T/C [27]: 99.7%
viability, T/C [28]: 85.4%
viability, T/C (second compound 1 µM, first compound 0.000316 µM): 89.9%
viability, T/C (second compound 1 µM, first compound 0.001 µM): 86.8%
viability, T/C [31]: 84.2%
viability, T/C [32]: 87.5%
viability, T/C [33]: 80.8%
viability, T/C [34]: 83.2%

O=C(c1ccc(F)c(F)c1Nc1ccc(I)cc1F)N1CC(O)([C@@H]2CCCCN2)C1 + CNC(C)C(=O)NC1CN(S(=O)(=O)c2cccc(S(=O)(=O)N3CCC4CCC(C(=O)NC(c5ccccc5)c5ccccc5)N4C(=O)C(NC(=O)C(C)NC)C3)c2)CCC2CCC(C(=O)NC(c3ccccc3)c3ccccc3)N2C1=O
IC50 (second compound 0.00316 µM): 125 nM
IC50 (second compound 0.01 µM): 343 nM
IC50 (second compound 0.0316 µM): 304 nM
IC50 (second compound 0.1 µM): 173 nM
IC50 (second compound 0.316 µM): 229 nM
IC50 (second compound 1 µM): 238 nM
viability, T/C [1]: 88.3%
viability, T/C [2]: 76.9%
viability, T/C [3]: 59.4%
viability, T/C [4]: 58.4%
viability, T/C [5]: 40.4%
viability, T/C [6]: 20.8%
viability, T/C [7]: 94.6%
viability, T/C [8]: 88.3%
viability, T/C [9]: 71.8%
viability, T/C [10]: 65.9%
viability, T/C [11]: 51.3%
viability, T/C [12]: 36.9%
viability, T/C [13]: 102%
viability, T/C [14]: 81.6%
viability, T/C [15]: 69%
viability, T/C [16]: 67.2%
viability, T/C [17]: 55%
viability, T/C [18]: 32.6%
viability, T/C [19]: 85.1%
viability, T/C [20]: 82.9%
viability, T/C [21]: 64.4%
viability, T/C [22]: 56%
viability, T/C [23]: 46.8%
viability, T/C [24]: 24.7%
viability, T/C [25]: 91.1%
viability, T/C [26]: 79.2%
viability, T/C [27]: 66.5%
viability, T/C [28]: 60%
viability, T/C [29]: 49.9%
viability, T/C [30]: 31.8%
viability, T/C [31]: 82%
viability, T/C [32]: 68.1%
viability, T/C [33]: 66.3%
viability, T/C [34]: 61.4%
viability, T/C [35]: 47.4%
viability, T/C [36]: 33.4%
